Measurements published in patent publication US7320972B2, “4-Biarylyl-1-phenylazetidin-2-ones” (Microbia, Inc., priority 2003, dated 2008).

Test system: cholesterol absorption (serum 3H-cholesterol)
Experiment: In Vivo Assay of Hypolipidemic Agents using the Rat Cholesterol Absorption Model
Parameters: species or system Sprague-Dawley rats
Details: peroral, 1 mg/kg, serum 3H-cholesterol 3 h after cholesterol dose, vs vehicle control; for inhibition in vivo at 1 mg/kg: po
Description: In Vivo Assay of Hypolipidemic Agents using the Rat Cholesterol Absorption Model. This model is based on models described by Burnett et al (2002), Bioorg. Med. Chem. Lett. 2002 Feb. 11;12(3):315-8 and J. Lipid Res. 1999 October;40(10):1747-57. Female Sprague-Dawley rats weighing 150-250 g are separated into groups of […] and fasted overnight. The animals (4-6/group) are dosed perorally with 300 μL test compounds in olive oil or suitable vehicle. Thirty minutes later, 3-5 microCuries ^3H-cholesterol per rat are delivered perorally in 300 μL olive oil. After three hours, 200 μL serum is collected, vortexed with scintillation fluid, and measured for radioactivity in a scintillation counter. Percent inhibition is defined as 100*(1−Ctest/Cctrl), where Ctest and Cctl refer to ^3H levels in serum for the test compound and for the vehicle only control, respectively. Percent inhibition values are reported for a fixed dose. The ED50 is the dose at which the half-maximal effect on serum ^3H levels is observed for a given test compound.
Representative compounds of the invention were tested in the Rat Cholesterol Absorption model above.

`O=Cc1ccc(O)cc1-c1ccc([C@@H]2[C@@H](CC[C@H](O)c3ccc(F)cc3)C(=O)N2c2ccc(F)cc2)cc1` [Example 104, 4′-{(2S,3R)-1-(4-fluorophenyl)-3-[(3S)-3-(4-fluorophenyl)-3-hydroxypropyl]-4-oxoazetidin-2-yl}-5-hydroxybiphenyl-2-carbaldehyde] was tested, and the inhibition in vivo at 1 mg/kg was 52%.

`Cc1cc(C)cc(-c2ccc([C@@H]3[C@@H](CC[C@H](O)c4ccc(F)cc4)C(=O)N3c3ccc(F)cc3)cc2)c1` [Example 90, (3R,4S)-4-(3′,5′-dimethylbiphenyl-4-yl)-1-(4-fluorophenyl)-3-[(3S)-3-(4-fluorophenyl)-3-hydroxypropyl]azetidin-2-one] showed an inhibition in vivo at 1 mg/kg of 27%.

With `O=C(O)[C@@H]1O[C@H](Oc2cccc(-c3ccc([C@@H]4[C@@H](CC[C@H](O)c5ccc(F)cc5)C(=O)N4c4ccc(F)cc4)cc3)c2)[C@@H](O)[C@H](O)[C@H]1O` [Example 20, 4′-{(2S,3R)-1-(4-fluorophenyl)-3-[(3S)-3-(4-fluorophenyl)-3-hydroxypropyl]-4-oxoazetidin-2-yl}biphenyl-3-yl β-L-glucopyranosiduronic Acid] the inhibition in vivo at 1 mg/kg was 59%.

`O=C1[C@H](CC[C@H](O)c2ccc(F)cc2)[C@@H](c2ccc(-c3ccc(S(=O)(=O)O)cc3)cc2O)N1c1ccccc1` [Example 128, Sodium 4′-{(2S,3R)-3-[(3S)-3-(4-fluorophenyl)-3-hydroxypropyl]-4-oxo-1-phenylazetidin-2-yl}-3′-hydroxybiphenyl-4-sulfonate] gave an inhibition in vivo at 1 mg/kg of 60%.

Molecule `CCCOc1cccc(-c2ccc([C@@H]3[C@@H](CC[C@H](O)c4ccc(F)cc4)C(=O)N3c3ccc(F)cc3)cc2)c1` [Example 103, (3R,4S)-1-(4-fluorophenyl)-3-[(3S)-3-(4-fluorophenyl)-3-hydroxypropyl]-4-(3′-propoxybiphenyl-4-yl)azetidin-2-one] has an inhibition in vivo at 1 mg/kg of 21%.

Molecule `O=C1[C@H](CCC(O)c2ccc(F)cc2)[C@@H](c2ccc(-c3cccc(S(=O)(=O)O)c3)cc2O)N1c1ccccc1` (stereo partly drawn) [Example 53, Sodium 4′-{(2S,3R)-3-[(3S/R)-3-(4-fluorophenyl)-3-hydroxypropyl]-4-oxo-1-phenylazetidin-2-yl}-3′-hydroxybiphenyl-3-sulfonate] has an inhibition in vivo at 1 mg/kg of 78%.

`CSc1cccc(-c2ccc([C@@H]3[C@@H](CC[C@H](O)c4ccc(F)cc4)C(=O)N3c3ccc(F)cc3)cc2)c1` [Example 82, (3R,4S)-1-(4-fluorophenyl)-3-[(3S)-3-(4-fluorophenyl)-3-hydroxypropyl]-4-[3′-(methylthio)biphenyl-4-yl]azetidin-2-one] was tested, and the inhibition in vivo at 1 mg/kg was 28%.

Molecule `O=C1[C@H](CC[C@H](O)c2ccc(F)cc2)[C@@H](c2ccc(-c3ccc4c(c3)OCCO4)cc2)N1c1ccc(F)cc1` [Example 87, (3R,4S)-4-[4-(2,3-dihydro-1,4-benzodioxin-6-yl)phenyl]-1-(4-fluorophenyl)-3-[(3S)-3-(4-fluorophenyl)-3-hydroxypropyl]azetidin-2-one] has an inhibition in vivo at 1 mg/kg of 59%.

`O=C1[C@H](CC[C@H](O)c2ccc(F)cc2)[C@@H](c2ccc(-c3cc(O)cc(F)c3)cc2)N1c1ccc(F)cc1` [Example 112, (3R,4S)-4-(3′-fluoro-5′-hydroxybiphenyl-4-yl)-1-(4-fluorophenyl)-3-[(3S)-3-(4-fluorophenyl)-3-hydroxypropyl]azetidin-2-one] showed an inhibition in vivo at 1 mg/kg of 75%.

For `CCOc1cccc(-c2ccc([C@@H]3[C@@H](CC[C@H](O)c4ccc(F)cc4)C(=O)N3c3ccc(F)cc3)cc2)c1` [Example 100, (3R,4S)-4-(3′-ethoxybiphenyl-4-yl)-1-(4-fluorophenyl)-3-[(3S)-3-(4-fluorophenyl)-3-hydroxypropyl]azetidin-2-one], the inhibition in vivo at 1 mg/kg was 54%.

`CO[C@H]1O[C@H](COc2cccc(-c3ccc([C@@H]4[C@@H](CC[C@H](O)c5ccc(F)cc5)C(=O)N4c4ccc(F)cc4)cc3)c2)[C@@H](O)[C@H](O)[C@H]1O` [Example 77, Methyl 6-O-(4′-{(2S,3R)-1-(4-fluorophenyl)-3-[(3S)-3-(4-fluorophenyl)-3-hydroxypropyl]-4-oxoazetidin-2-yl}biphenyl-3-yl)-α-D-glucopyranoside] showed an inhibition in vivo at 1 mg/kg of 70%.

Molecule `CCOc1ccc(-c2ccc([C@@H]3[C@@H](CC[C@H](O)c4ccc(F)cc4)C(=O)N3c3ccc(F)cc3)cc2)cc1` [Example 101, (3R,4S)-4-(4′-ethoxybiphenyl-4-yl)-1-(4-fluorophenyl)-3-[(3S)-3-(4-fluorophenyl)-3-hydroxypropyl]azetidin-2-one] has an inhibition in vivo at 1 mg/kg of 41%.

For `CN(C)S(=O)(=O)c1ccc(-c2ccc([C@@H]3[C@@H](CC[C@H](O)c4ccc(F)cc4)C(=O)N3c3ccc(F)cc3)cc2)cc1` [Example 15, 4′-{(2S,3R)-1-(4-fluorophenyl)-3-[(3S)-3-(4-fluorophenyl)-3-hydroxypropyl]-4-oxoazetidin-2-yl}biphenyl-N,N-dimethylbiphenyl-4-sulfonamide], the inhibition in vivo at 1 mg/kg was 8%.

With `Cc1cc(-c2ccc([C@@H]3[C@@H](CC[C@H](O)c4ccc(F)cc4)C(=O)N3c3ccc(F)cc3)cc2)ccc1F` [Example 94, (3R,4S)-4-(4′-fluoro-3′-methylbiphenyl-4-yl)-1-(4-fluorophenyl)-3-[(3S)-3-(4-fluorophenyl)-3-hydroxypropyl]azetidin-2-one] the inhibition in vivo at 1 mg/kg was 30%.

For `O=Cc1ccc(-c2ccc([C@@H]3[C@@H](CC[C@H](O)c4ccc(F)cc4)C(=O)N3c3ccc(F)cc3)cc2)cc1` [Example 99, 4′-{(2S,3R)-1-(4-fluorophenyl)-3-[(3S)-3-(4-fluorophenyl)-3-hydroxypropyl]-4-oxoazetidin-2-yl}biphenyl-4-carbaldehyde], the inhibition in vivo at 1 mg/kg was 38%.

Work on `C=Cc1ccc(-c2ccc([C@@H]3[C@@H](CC[C@H](O)c4ccc(F)cc4)C(=O)N3c3ccc(F)cc3)cc2)cc1` [Example 84, (3R,4S)-1-(4-fluorophenyl)-3-[(3S)-3-(4-fluorophenyl)-3-hydroxypropyl]-4-(4′-vinylbiphenyl-4-yl)azetidin-2-one] yielded an inhibition in vivo at 1 mg/kg of 51%.

Molecule `O=C1[C@H](CC[C@H](O)c2ccc(F)cc2)[C@@H](c2ccc(-c3cc(O)ccc3Br)cc2)N1c1ccc(F)cc1` [Example 19, (3R,4S)-4-(2′-bromo-5′-hydroxybiphenyl-4-yl)-1-(4-fluorophenyl)-3-[(3S)-3-(4-fluorophenyl)-3-hydroxypropyl]azetidin-2-one] has an inhibition in vivo at 1 mg/kg of 66%.

`Nc1cccc(-c2ccc([C@@H]3[C@@H](CC[C@H](O)c4ccc(F)cc4)C(=O)N3c3ccc(F)cc3)cc2)c1` [Example 86, (3R,4S)-4-(3′-aminobiphenyl-4-yl)-1-(4-fluorophenyl)-3-[(3S)-3-(4-fluorophenyl)-3-hydroxypropyl]azetidin-2-one] showed an inhibition in vivo at 1 mg/kg of 35%.

`COc1ccc(-c2ccc([C@@H]3[C@@H](CC[C@H](O)c4ccc(F)cc4)C(=O)N3c3ccc(F)cc3)cc2)c(OC)c1OC` [Example 96, (3R,4S)-1-(4-fluorophenyl)-3-[(3S)-3-(4-fluorophenyl)-3-hydroxypropyl]-4-(2′,3′,4′-trimethoxybiphenyl-4-yl)azetidin-2-one] gave an inhibition in vivo at 1 mg/kg of 69%.

`O=C1[C@H](CC[C@H](O)c2ccc(F)cc2)[C@@H](c2ccc(-c3cccc(CO)c3)cc2)N1c1ccc(F)cc1` [Example 16, (3R,4S)-1-(4-Fluorophenyl)-3-[(3S)-3-(4-fluorophenyl)-3-hydroxypropyl]-4-(3′-(hydroxymethyl)biphenyl-4-yl)azetidin-2-one] gave an inhibition in vivo at 1 mg/kg of 72%.

`O=C1[C@H](CC[C@H](O)c2ccc(F)cc2)[C@@H](c2ccc(-c3ccc(O)cc3O)cc2)N1c1ccc(F)cc1` [Example 108, (3R,4S)-4-(2′,4′-dihydroxybiphenyl-4-yl)-1-(4-fluorophenyl)-3-[(3S)-3-(4-fluorophenyl)-3-hydroxypropyl]azetidin-2-one] was tested, and the inhibition in vivo at 1 mg/kg was 69%.

With `C[N+](C)(C)c1cccc(-c2ccc([C@@H]3[C@@H](CC[C@H](O)c4ccc(F)cc4)C(=O)N3c3ccc(F)cc3)cc2)c1` [Example 120, 4′-{(2S,3R)-1-(4-fluorophenyl)-3-[(3S)-3-(4-fluorophenyl)-3-hydroxypropyl]-4-oxoazetidin-2-yl}-N,N,N-trimethylbiphenyl-3-aminium] the “% inhibition at 1 mg/kg” value was 23%.

`O=C(O)c1ccc(-c2ccc([C@@H]3[C@@H](CC[C@H](O)c4ccc(F)cc4)C(=O)N3c3ccc(F)cc3)cc2)cc1O` [Example 110, 4′-{(2S,3R)-1-(4-fluorophenyl)-3-[(3S)-3-(4-fluorophenyl)-3-hydroxypropyl]-4-oxoazetidin-2-yl}-3-hydroxybiphenyl-4-carboxylic Acid] showed an inhibition in vivo at 1 mg/kg of 72%.

`O=C(O)c1cc(-c2ccc([C@@H]3[C@@H](CC[C@H](O)c4ccc(F)cc4)C(=O)N3c3ccc(F)cc3)cc2)ccc1O` [Example 106, 4′-{(2S,3R)-1-(4-fluorophenyl)-3-[(3S)-3-(4-fluorophenyl)-3-hydroxypropyl]-4-oxoazetidin-2-yl}-4-hydroxybiphenyl-3-carboxylic Acid] showed an inhibition in vivo at 1 mg/kg of 66%.

`COc1cc(OC)cc(-c2ccc([C@@H]3[C@@H](CC[C@H](O)c4ccc(F)cc4)C(=O)N3c3ccc(F)cc3)cc2)c1` [Example 107, (3R,4S)-4-(3′,5′-dimethoxybiphenyl-4-yl)-1-(4-fluorophenyl)-3-[(3S)-3-(4-fluorophenyl)-3-hydroxypropyl]azetidin-2-one] showed an inhibition in vivo at 1 mg/kg of 49%.
